Tests used:
Assay in all cases: MTT assay, sensitivity to erlotinib (IC50)
Assay type in all cases: cell-based, human
[1] = test system: arsenic exposed (As)-HUC1 cells; details: 72 hours (FIG. 1H)
Experimental: (§1) Embryonic kidney cell line 293, SV-40 immortalized normal human urothelial cell line (HUC1), and bladder cancer cell lines 5637, FIT-1376, J82, SCaBER, RT-4, T24, and UM-UC3 were obtained from American. Type Culture Collection (ATCC; Manassas, Va., USA). Mediums were purchased from Mediatech (Manassas, USA) and supplemented with 10% FBS (Hyclone, Logan, USA) under a 5% CO2 atmosphere at 95% relative humidity. HUC-1, T24, and 5637 cells were grown in F-12K, McCoy's 5A, and RPMI 1640 medium, respectively, and all other cells were grown Dulbecco's modified Eagle medium (DMEM). BFTC 905 and BFTC 909 cell lines were established from arsenic-exposed urothelial carcinoma subjects (9) and obtained from the German Collection of Microorganisms and Cell Cultures (Braunschweig, Germany). Re-authentification of cells was performed using PowerPlex 16 HS for short tandem repeats analysis at Genetic resource core facility, the Johns Hopkins University School of Medicine, Institute of Genetic Medicine, and all cell lines have been confirmed as authentic. To prepare in vitro arsenic model, we chronically exposed HUC1 cells to 1 μM arsenic trioxide, as described previously (10) and arsenic-exposed (As) cells and passage-matched arsenic un-exposed control (UE) cells were stock for each months until 12 months. […]
(§2) The cell proliferative and viability activity were measured using the 3-(4,5-dimethyl thiazol-2-yl)-2,5-diphenyltetrazolium bromide (MTT) Proliferation Assay Kit (ATCC; Manassas, Va., USA) according to the manufacturer's protocol. […] Spectrophotometric readings (570 nm-650 nm) were obtained on a Spectra Max 250 96-well plate reader (Molecular devices, Sunnyvale, USA). […] Cell viability was expressed as the ratio of absorbance values of the treated cells related to the untreated control cells considered as 1.0. The half maximal (50%) inhibitory concentration (IC50) value of drug was calculated by treatment with the various concentration for 72 hours using MTT assay. […]

[2] = test system: basal-type bladder cancer cell lines; details: 72 hours
Experimental: as §1, §2

[3] = test system: BFTC 905 cells; details: BFTC 905 cells harboring an NRAS mutation, 72 hours
Experimental: as §1, §2

C#Cc1cccc(Nc2ncnc3cc(OCCOC)c(OCCOC)cc23)c1 [erlotinib, Erlotinib]
sensitivity to the EGFR inhibitor erlotinib [1]: sensitive | sensitivity to the EGFR inhibitor erlotinib [2]: sensitive | sensitivity to the EGFR inhibitor erlotinib [3]: resistance
